This is an account of results in ChEMBL document CHEMBL1156379, “Furanosesquiterpenoids of Commiphora myrrha” (J Nat Prod, 2001).

The assay has as its system MCF7. Kind of assay: Cytotoxicity against human MCF7 cells after 15 days by clonogenic assay. The class given is functional, cell-based.

Broadly, the IC50 is the concentration at which inhibition is half-maximal. As to `C=C1Cc2occ(C)c2C(=O)C[C@H](C)C[C@@H]2O[C@@H]12` (relative stereo), the IC50 (Homo sapiens, MCF7, 360 h, read-out: IC50) stood at 40 µM.

With `C=C1/C=C/[C@H](OC)[C@@H](C)CC(=O)c2c(C)coc2C1` (relative stereo), under “mcf7”, the IC50 result was “Not Active”.

As to `CO[C@H]1/C=C(/C)Cc2occ(C)c2C(=O)[C@@H](OC(C)=O)[C@H](C)C1` (relative stereo), the IC50 result (mcf7) is recorded as “Not Active”.

Turning to `CO[C@H]1/C=C(\C)Cc2occ(C)c2C(=O)C[C@H](C)C1` (relative stereo), under “mcf7”, the IC50 entry is “Not Active”.
